{"source": "patent US3951987A", "about": "“Tetrahydropyridine derivatives” (priority 1975, dated 1976)", "key": {"Toxicity (mouse), p.o.": {"test": "Toxicity (mouse), p.o.", "settings": "in vivo, po"}, "rats": {"test_system": "rats", "test": "Standard \"open field\" test (50 percent decrease in the number of diameter crossings vs untreated controls)", "format": "in vivo", "settings": "Rattus norvegicus, po, read-out: ED50 (dosage which caused a 50 percent decrease in the number of diameter crossings)", "description": "The dosage which caused a 50 percent decrease (in comparison to the untreated controls) in the number of diameter crossings is expressed as the ED50."}}, "data": [{"smiles": "CC(=O)Nc1ccc(OCCN2CC=C(c3ccc(F)cc3)CC2)cc1", "note": "[4'-{2-[4-(p-fluorophenyl)-3,6-dihydro-1(2H)-pyridyl]ethoxy}acetanilide]", "values": [{"measurement": "LD50", "setting": "Toxicity (mouse), p.o.", "result": "250 to 500", "unit": "mg/kg"}, {"measurement": "ED50", "setting": "rats", "result": 0.6, "unit": "mg/kg"}]}, {"smiles": "CCC(=O)Nc1ccc(OCCN2CC=C(c3ccc(F)cc3)CC2)cc1", "note": "[4'-[2-[4-(p-fluoro-phenyl)-3,6-dihydro-1(2H)-pyridyl)-ethoxy]-propionanilide]", "values": [{"measurement": "LD50", "setting": "Toxicity (mouse), p.o.", "result": "150 to 300", "unit": "mg/kg"}, {"measurement": "ED50", "setting": "rats", "result": 0.6, "unit": "mg/kg"}]}, {"smiles": "Nc1ccc(OCCN2CC=C(c3ccc(F)cc3)CC2)cc1", "note": "[p-[2-[4-(p-fluoro-phenyl)-3,6-dihydro-1(2H)-pyridyl]-ethoxy]-aniline]", "values": [{"measurement": "LD50", "setting": "Toxicity (mouse), p.o.", "result": "250 to 500", "unit": "mg/kg"}, {"measurement": "ED50", "setting": "rats", "result": 0.6, "unit": "mg/kg"}]}]}
